Source: patent US6677277B1, “Substituted sulphonyl amino(thio)carbonyl compounds and their use as herbicides” (Bayer Aktiengesellschaft, priority 1996, dated 2004)

Legend:
[1] = tested on: Amaranthus; assay: Post-emergence test/greenhouse; format: in vivo; conditions: for Amaranthus, % damage: Table B-4, post-emergence, 60 g ai./ha, rated after three weeks vs untreated control
Protocol: (§1) Post-emergence Test Solvent: 5 parts by weight of acetone Emulsifier: 1 part by weight of alkylaryl polyglycol ether To produce a suitable preparation of active compound, 1 part by weight of active compound is mixed with the stated amount of solvent, the stated amount of emulsifier is added and the concentrate is diluted with water to the desired concentration. Test plants which have a height of 5-15 cm are sprayed with the preparation of the active compound in such a way as to apply the particular amounts of active compound desired per unit area. The concentration of the spray liquor is chosen so that the particular amounts of active compound desired are applied in 1000 l of water/ha. After three weeks, the degree of damage to the plants is rated in % damage in comparison to the development of the untreated control. The figures denote: [table]

[2] = tested on: Solanum; assay: Post-emergence test/greenhouse; format: in vivo; conditions: for Solanum, % damage: rated after three weeks vs untreated control; for % damage, Solanum: after three weeks
Protocol: as §1

[3] = tested on: Sorghum; assay: Post-emergence test/greenhouse; format: in vivo; conditions: 60 g ai./ha; for Sorghum, % damage: rated after three weeks vs untreated control
Protocol: as §1

[4] = tested on: Xanthium; assay: Post-emergence test/greenhouse; format: in vivo; conditions: for Xanthium, % damage: rated after three weeks vs untreated control; for % damage, Xanthium: after three weeks
Protocol: as §1

[5] = tested on: weeds; assay: Post-emergence test; format: in vivo; conditions: cf. Tables B-1 to B-4
Protocol: as §1

[6] = tested on: Echinochloa; assay: Post-emergence test/greenhouse; format: in vivo; conditions: Table B-4, post-emergence, 60 g ai./ha, rated after three weeks vs untreated control
Protocol: as §1, with “Emulsifier:” for “Post-emergence Test Solvent: 5 parts by weight of acetone Emulsifier:”, “control.” for “control. The figures denote: [table]”

[7] = tested on: Alopecurus; assay: Pre-emergence test/greenhouse; format: in vivo; conditions: after three weeks
Protocol: (§2) Pre-emergence Test Solvent: 5 parts by weight of acetone Emulsifier: 1 part by weight of alkylaryl polyglycol ether To produce a suitable preparation of active compound, 1 part by weight of active compound is mixed with the stated amount of solvent, the stated amount of emulsifier is added and the concentrate is diluted with water to the desired concentration. Seeds of the test plants are sown in normal soil. After about 24 hours, the soil is sprayed with the preparation of the active compound in such a way as to apply the particular amounts of active compound desired per unit area The concentration of the spray liquor is chosen so that the particular amounts of active compound desired are applied in 1000 l of water/ha. After three weeks, the degree of damage to the plants is rated in % damage in comparison to the development of the untreated control. The figures denote: [table]

[8] = tested on: Amaranthus; assay: Pre-emergence test/greenhouse; format: in vivo; conditions: after three weeks
Protocol: as §2

[9] = tested on: Chenopodium; assay: Pre-emergence test/greenhouse; format: in vivo; conditions: after three weeks
Protocol: as §2

[10] = tested on: Lolium; assay: Pre-emergence test/greenhouse; format: in vivo; conditions: after three weeks
Protocol: as §2

[11] = tested on: Maize; assay: Pre-emergence test/greenhouse; format: in vivo; conditions: after three weeks
Protocol: as §2

[12] = tested on: Matricaria; assay: Pre-emergence test/greenhouse; format: in vivo; conditions: after three weeks
Protocol: as §2

[13] = tested on: Solanum; assay: Pre-emergence test/greenhouse; format: in vivo; conditions: after three weeks
Protocol: as §2

[14] = tested on: Sorghum; assay: Pre-emergence test/greenhouse; format: in vivo; conditions: after three weeks
Protocol: as §2

[15] = tested on: Soya beans; assay: Pre-emergence test/greenhouse; format: in vivo; conditions: 125 g ai./ha, after three weeks
Protocol: as §2

[16] = tested on: weeds; assay: Pre-emergence test; format: in vivo; conditions: cf. Tables A-1 to A-5
Protocol: as §2

[17] = tested on: Ipomoea; assay: Post-emergence test/greenhouse; format: in vivo; conditions: 60 g ai./ha; for Ipomoea, % damage: rated after three weeks vs untreated control
Protocol: as §1

[18] = tested on: Stellaria; assay: Post-emergence test/greenhouse; format: in vivo; conditions: 60 g ai./ha; for Stellaria, % damage: rated after three weeks vs untreated control
Protocol: as §1

[19] = tested on: Wheat; assay: Post-emergence test/greenhouse; format: in vivo; conditions: for Wheat, % damage: rated after three weeks vs untreated control; for % damage, Wheat: after three weeks
Protocol: as §1

[20] = tested on: Bromus; assay: Pre-emergence test/greenhouse; format: in vivo; conditions: 60 g ai./ha, after three weeks
Protocol: as §2

[21] = tested on: Cotton; assay: Pre-emergence test/greenhouse; format: in vivo; conditions: 60 g ai./ha, after three weeks
Protocol: as §2

[22] = tested on: Echinochloa; assay: Pre-emergence test/greenhouse; format: in vivo; conditions: 60 g ai./ha, after three weeks
Protocol: as §2

[23] = tested on: Veronica; assay: Pre-emergence test/greenhouse; format: in vivo; conditions: 60 g ai./ha, after three weeks
Protocol: as §2

[24] = tested on: Wheat; assay: Pre-emergence test/greenhouse; format: in vivo; conditions: 60 g ai./ha, after three weeks
Protocol: as §2

[25] = tested on: Alopecurus; assay: Post-emergence test/greenhouse; format: in vivo; conditions: 60 g ai./ha, after three weeks
Protocol: as §1

[26] = tested on: Lolium; assay: Post-emergence test/greenhouse; format: in vivo; conditions: 60 g ai./ha, after three weeks
Protocol: as §1

[27] = tested on: Matricaria; assay: Post-emergence test/greenhouse; format: in vivo; conditions: 125 g ai./ha, after three weeks
Protocol: as §1

[28] = log P n-octanol/water by the HPLC method; format: physicochemical; conditions: at pH 2, eluent acetonitrile containing 1% of H3PO4
[29] = Table B-4, post-emergence, 60 g ai./ha

COc1nn(C(=O)NS(=O)(=O)c2c(SC)cccc2SC)c(=O)n1C [Example 50]
Amaranthus, % damage [1]: 95% | Solanum, % damage [2, 29]: 95% | Sorghum, % damage ([3]; Table B-4, post-emergence): 95% | Xanthium, % damage [4, 29]: 95% | activity against weeds [5]: very strong activity | Echinochloa, % damage [6]: 80%

CCSc1cccc(OC(F)(F)F)c1S(=O)(=O)NC(=O)n1nc(OC)n(C)c1=O [Example 40]
% damage, Alopecurus ([7]; 125 g ai./ha): 100% | % damage, Amaranthus ([8]; 125 g ai./ha): 100% | % damage, Chenopodium ([9]; 125 g ai./ha): 100% | % damage, Lolium ([10]; 125 g ai./ha): 95% | % damage, Maize ([11]; 125 g ai./ha): 5% | % damage, Matricaria ([12]; 125 g ai./ha): 100% | % damage, Solanum ([13]; 125 g ai./ha): 100% | % damage, Sorghum ([14]; 125 g ai./ha): 100% | % damage, Soya beans [15]: 20% | activity against weeds [16]: very strong activity | Ipomoea, % damage [17]: 90% | Solanum, % damage ([2]; post-emergence, 60 g ai./ha): 95% | Sorghum, % damage ([3]; post-emergence): 80% | Stellaria, % damage [18]: 95% | Wheat, % damage ([19]; 60 g ai./ha): 20% | Xanthium, % damage ([4]; post-emergence, 60 g ai./ha): 100% | activity against weeds [5]: very strong activity

CCOc1nn(C(=O)NS(=O)(=O)c2c(OC)cccc2SCCF)c(=O)n1C [Example 59]
% damage, Alopecurus ([7]; 125 g ai./ha): 100% | % damage, Amaranthus ([8]; 125 g ai./ha): 100% | % damage, Chenopodium ([9]; 125 g ai./ha): 100% | % damage, Lolium ([10]; 125 g ai./ha): 100% | % damage, Matricaria ([12]; 125 g ai./ha): 100% | % damage, Solanum ([13]; 125 g ai./ha): 100% | % damage, Sorghum ([14]; 125 g ai./ha): 100% | activity against weeds [16]: very strong activity | Amaranthus, % damage [1]: 100% | Solanum, % damage [2, 29]: 90% | Sorghum, % damage ([3]; Table B-4, post-emergence): 100% | Xanthium, % damage [4, 29]: 95% | activity against weeds [5]: very strong activity | Echinochloa, % damage [6]: 100%

COc1nn(C(=O)NS(=O)(=O)c2c(SC)cccc2C(F)(F)F)c(=O)n1C [Example 61]
% damage, Alopecurus ([7]; 60 g ai./ha): 95% | % damage, Amaranthus ([8]; 60 g ai./ha): 100% | % damage, Bromus [20]: 100% | % damage, Chenopodium ([9]; 60 g ai./ha): 100% | % damage, Cotton [21]: 0% | % damage, Echinochloa [22]: 100% | % damage, Veronica [23]: 80% | % damage, Wheat [24]: 30% | activity against weeds [16]: very strong activity

CCc1nn(C(=O)NS(=O)(=O)c2c(C)cccc2SC)c(=O)n1C [Example 49]
Amaranthus, % damage [1]: 95% | Ipomoea, % damage [17]: 90% | Solanum, % damage [2, 29]: 90% | Solanum, % damage ([2]; post-emergence, 60 g ai./ha): 90% | Sorghum, % damage ([3]; Table B-4, post-emergence): 90% | Sorghum, % damage ([3]; post-emergence): 90% | Stellaria, % damage [18]: 70% | Wheat, % damage ([19]; 60 g ai./ha): 20% | Xanthium, % damage [4, 29]: 95% | Xanthium, % damage ([4]; post-emergence, 60 g ai./ha): 95% | activity against weeds [5]: very strong activity

CCSc1cccc(OC(F)(F)F)c1S(=O)(=O)NC(=O)n1nc(SC)n(C)c1=O [Example 41]
% damage, Alopecurus ([7]; 125 g ai./ha): 100% | % damage, Amaranthus ([8]; 125 g ai./ha): 100% | % damage, Chenopodium ([9]; 125 g ai./ha): 100% | % damage, Lolium ([10]; 125 g ai./ha): 80% | % damage, Maize ([11]; 125 g ai./ha): 10% | % damage, Matricaria ([12]; 125 g ai./ha): 100% | % damage, Solanum ([13]; 125 g ai./ha): 100% | % damage, Sorghum ([14]; 125 g ai./ha): 90% | % damage, Soya beans [15]: 20% | activity against weeds [16]: very strong activity

CCOc1nn(C(=O)NS(=O)(=O)c2c(OC)cccc2SC)c(=O)n1C [Example 20]
% damage, Alopecurus ([7]; 60 g ai./ha): 100% | % damage, Amaranthus ([8]; 60 g ai./ha): 100% | % damage, Chenopodium ([9]; 60 g ai./ha): 100% | % damage, Lolium ([10]; 60 g ai./ha): 95% | % damage, Maize ([11]; 60 g ai./ha): 0% | % damage, Matricaria ([12]; 60 g ai./ha): 100% | % damage, Solanum ([13]; 60 g ai./ha): 100% | % damage, Sorghum ([14]; 60 g ai./ha): 100% | activity against weeds [16]: very strong activity | % damage, Alopecurus [25]: 95% | % damage, Ipomoea ([17]; after three weeks): 95% | % damage, Lolium [26]: 90% | % damage, Solanum ([2]; post-emergence, 60 g ai./ha): 100% | % damage, Sorghum ([3]; post-emergence, after three weeks): 100% | % damage, Stellaria ([18]; after three weeks): 100% | % damage, Wheat ([19]; 60 g ai./ha): 20% | % damage, Xanthium ([4]; post-emergence, 60 g ai./ha): 95% | activity against weeds [5]: very strong activity

CCOc1nn(C(=O)NS(=O)(=O)c2c(C)cccc2SCC)c(=O)n1C [Example 56]
% damage, Amaranthus ([1]; post-emergence, 125 g ai./ha, after three weeks): 100% | % damage, Matricaria [27]: 100% | % damage, Solanum ([2]; post-emergence, 125 g ai./ha): 100% | % damage, Wheat ([19]; 125 g ai./ha): 10% | % damage, Xanthium ([4]; post-emergence, 125 g ai./ha): 100% | activity against weeds [5]: very strong activity

CSc1nn(C(=O)NS(=O)(=O)c2c(C)cccc2SCC(F)F)c(=O)n1C [Example 101]
log P [28]: (log P = 2.73)
